In patent publication US7304039B2, “Glucose-based compounds with affinity to P-selectin” (Astellas Pharma Europe B.V., priority 2002, dated 2007):

Molecular target: T1, human P-selectin (Homo sapiens, UniProt P16109)
T1 sequence (P16109 42-771): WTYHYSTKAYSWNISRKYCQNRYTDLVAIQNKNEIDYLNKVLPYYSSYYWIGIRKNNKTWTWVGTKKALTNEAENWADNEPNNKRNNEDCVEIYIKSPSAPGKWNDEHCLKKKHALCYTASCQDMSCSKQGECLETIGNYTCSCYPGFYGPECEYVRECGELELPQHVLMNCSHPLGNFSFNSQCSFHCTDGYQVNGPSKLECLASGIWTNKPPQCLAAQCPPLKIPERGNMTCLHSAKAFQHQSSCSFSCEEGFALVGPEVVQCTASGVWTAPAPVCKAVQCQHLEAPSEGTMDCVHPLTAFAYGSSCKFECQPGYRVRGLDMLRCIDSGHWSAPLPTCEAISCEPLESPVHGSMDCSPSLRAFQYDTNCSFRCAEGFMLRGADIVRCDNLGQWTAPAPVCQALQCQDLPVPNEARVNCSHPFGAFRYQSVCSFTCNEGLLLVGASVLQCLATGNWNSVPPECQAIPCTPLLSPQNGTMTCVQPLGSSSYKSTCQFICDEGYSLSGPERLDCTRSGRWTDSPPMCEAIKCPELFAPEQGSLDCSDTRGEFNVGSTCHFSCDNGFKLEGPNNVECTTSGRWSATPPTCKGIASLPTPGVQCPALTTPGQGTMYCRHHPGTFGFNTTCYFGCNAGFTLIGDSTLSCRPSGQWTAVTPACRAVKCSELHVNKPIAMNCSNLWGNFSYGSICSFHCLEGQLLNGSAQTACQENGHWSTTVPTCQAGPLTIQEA
Test: inhibition assay of SO3-sLea-PAA-biotin binding to immobilized P-selectin
Settings: inhibition of HSO3-Lea-PAA-biotin (0.33 μg/ml) binding to immobilized human P-selectin/IgG-Fc, 2 hours at 37° C.
Protocol: The activity of compound 3 was evaluated in an inhibition assay of SO3-sLe^a-PAA-biotin binding to immobilized P-selectin as described in the literature (G. Weitz-Schmedt et al., Anal. Biochem. 238, 184-190, 1996) and compared to that of its mannosyl analogue (reference compound 2). A 96 microtiter plate (High binding flat bottom, Costar, Corning, U.S.A.) was coated overnight at 4° C. with 10 μg/ml goat anti-human IgG in coating buffer (50 mM NaHCO3, pH 9.6). Subsequently, wells were washed with assay buffer (20 mM HEPES, 150 mM NaCl, 1 mM CaCl2, pH 7.4) and incubated for 1 hour at 37° C. with blocking buffer (3% BSA in assay buffer). After washing with assay buffer, the wells were incubated for 2 hours at 37° C. with human P-selectin/IgG-Fc (0.3 μg/ml) or CD4/IgG-Fc (as negative control). Subsequently, wells were washed three times with assay buffer and incubated for 2 hours at 37° C. in binding buffer (0.1% BSA, 0.05% Tween 20 in assay buffer) with 0.33 μg/ml HSO3-Le^a-PAA-biotin and the compound. The wells were washed six times with binding buffer and 3,3′,5,5′-tetramethylbenzine (TMB)/H2O2 was added and incubated at room temperature for 15 minutes. The reaction was halted by addition of 2M H2SO4 and the absorbance was measured at 450 nm.
The binding of compounds 6d, 6f, and 6i to P-selectin was evaluated using the same inhibition assay as described in example 2.

SMILES	EC50 [mM]
O=C(COP(=O)(O)O)C(O)C(O)COC1OC(CO)C(O)C(O)C1O (centres unmarked) [Reference compound 2, reference compound]	8.2
O=C(COP(=O)(O)O)C(O)C(O)COC1OC(CO)C(O)C(O)C1O (centres unmarked) [Compound 3]	2
O=C(NC1C(OCC(O)C(O)C(=O)COP(=O)(O)O)OC(CO)C(O)C1O)c1ccccc1 (centres unmarked) [Compound 6f]	0.9
O=C(NC1C(OCC(O)C(O)C(=O)COP(=O)(O)O)OC(CO)C(O)C1O)OCC(Cl)(Cl)Cl (centres unmarked) [Compound 6d]	3.7
CCCCCCCC(=O)NC1C(OCC(O)C(O)C(=O)COP(=O)(O)O)OC(CO)C(O)C1O (centres unmarked) [Compound 6c]	4.5
